As usually defined, the IC50 is the concentration needed to halve the response being measured. One may read the Kd as the free concentration of one partner at which half of the binding sites on the other are occupied at equilibrium, for simple one-to-one binding. What is called Ki is the dissociation constant of the complex between target and ligand, obtained from inhibition or displacement.

Assay [1] has as its target T1, S-sulfocysteine synthase (Mycobacterium tuberculosis (strain ATCC 25618 / H37Rv), UniProt Q79FV4).
T1 sequence (Q79FV4 whole entry): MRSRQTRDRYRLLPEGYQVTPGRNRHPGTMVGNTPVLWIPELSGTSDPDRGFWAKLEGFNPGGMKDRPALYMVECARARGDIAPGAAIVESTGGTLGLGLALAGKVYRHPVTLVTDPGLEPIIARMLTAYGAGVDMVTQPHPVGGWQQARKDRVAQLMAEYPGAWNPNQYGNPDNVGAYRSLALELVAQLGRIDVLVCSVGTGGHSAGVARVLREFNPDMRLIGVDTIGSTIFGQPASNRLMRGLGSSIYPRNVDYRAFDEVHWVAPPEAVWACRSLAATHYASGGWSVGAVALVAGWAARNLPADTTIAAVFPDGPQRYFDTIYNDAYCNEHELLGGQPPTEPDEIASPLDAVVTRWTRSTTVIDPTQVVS
The experiment in a line: Inhibition of hexahistidine-tagged recombinant Mycobacterium tuberculosis CysK2 expressed in Escherichia coli BL21(DE3) assessed as amount of S-sulfocysteine produced using […] as substrate incubated for 30 mins by acid-ninhydrin based spectrophotometric assay.

The target in assay [2] is T1, S-sulfocysteine synthase. The experiment in a line: Inhibition of hexahistidine-tagged recombinant Mycobacterium tuberculosis CysK2 expressed in Escherichia coli BL21(DE3) assessed as dissociation constant using PLP as substrate incubated for 5 mins by fluorescence analysis.
The target of assay [3] is T2, O-acetylserine sulfhydrylase (Mycobacterium tuberculosis, UniProt P9WP55). The experiment in a line: Inhibition of hexahistidine-tagged recombinant Mycobacterium tuberculosis CysK1 expressed in Escherichia coli BL21(DE3) assessed as amount of cysteine produced using O-acetyl-L-serine as substrate incubated for 12 mins by acid-ninhydrin based spectrophotometric assay.

The target of assay [4] is O-phosphoserine sulfhydrylase (Mycobacterium tuberculosis (strain ATCC 25618 / H37Rv), UniProt P9WP53). Briefly: Inhibition of Mycobacterium tuberculosis CysM.
Assay [5] addresses T2, O-acetylserine sulfhydrylase. The experiment in a line: Inhibition of hexahistidine-tagged recombinant Mycobacterium tuberculosis CysK1 expressed in Escherichia coli BL21(DE3) assessed as dissociation constant using PLP as substrate incubated for 5 mins by fluorescence analysis.
The target of assay [6] is T1, S-sulfocysteine synthase. The experiment in a line: Inhibition of hexahistidine-tagged recombinant Mycobacterium tuberculosis CysK2 expressed in Escherichia coli BL21(DE3) assessed as inhibition constant using […] as substrate by Lineweaver-Burk plot analysis.

Sequence of O-phosphoserine sulfhydrylase (P9WP53 whole entry): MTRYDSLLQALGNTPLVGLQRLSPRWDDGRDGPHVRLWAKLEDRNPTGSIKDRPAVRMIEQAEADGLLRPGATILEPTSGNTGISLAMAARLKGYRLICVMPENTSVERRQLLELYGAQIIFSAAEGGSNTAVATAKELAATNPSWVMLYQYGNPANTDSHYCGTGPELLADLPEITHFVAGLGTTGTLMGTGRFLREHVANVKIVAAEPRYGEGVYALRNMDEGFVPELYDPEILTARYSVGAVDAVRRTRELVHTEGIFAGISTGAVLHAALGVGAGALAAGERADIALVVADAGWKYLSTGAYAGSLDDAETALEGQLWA

For the compound `O=C(Nc1ccc(Cl)cc1)Nc1cccc(C(=O)O)c1`, the IC50 on S-sulfocysteine synthase [1] turned out to be 13 µM. Also, the Kd on S-sulfocysteine synthase [2] came out at 16.9 µM.

On to `Cc1ccc(NC(=O)Nc2cccc(C(=O)O)c2)cc1`, for which the dissociation constant Kd on S-sulfocysteine synthase [2] is 148 µM.

As to `O=C(Nc1cccc(-c2ccccc2)c1)Nc1ccc(O)c(C(=O)O)c1`, the results for the IC50 (in assay [3]; on S-sulfocysteine synthase [1]) were 9.3 µM and 10.3 µM, respectively. Moreover, the Kd at S-sulfocysteine synthase [2] stood at 102 µM.

For `O=C(Nc1cccc(-c2nnn[nH]2)c1)Nc1ccc(Cl)c(Cl)c1`, the Kd at S-sulfocysteine synthase [2] came out at 80.3 µM.

For `O=C(Nc1cccc(C(=O)O)c1)Nc1ccc(Cl)c(Cl)c1`, the IC50 was found to be 0.48 µM in assay [4], 11.2 µM in assay [3] and 10.1 µM at S-sulfocysteine synthase [1]. The Kd is 241 µM in assay [5] and 48.7 µM on S-sulfocysteine synthase [2].

As to `O=C(Nc1cccc(-c2ccccc2)c1)Nc1ccc(C(=O)O)c(O)c1`, the IC50 is 21.2 µM in assay [3] and 26.9 µM on S-sulfocysteine synthase [1].

As to `O=C(Nc1ccc(Br)cc1)Nc1cccc(C(=O)O)c1`, the IC50 at S-sulfocysteine synthase [1] was 27.6 µM. For the same compound, the equilibrium dissociation constant (Kd) at S-sulfocysteine synthase [2] turned out to be 17.7 µM.

On to `O=C(Nc1ccc(Cl)c(Cl)c1)Nc1ccc(O)c(C(=O)O)c1`, for which the concentration for half-maximal inhibition (IC50) in assay [3] came to 2.5 µM; on S-sulfocysteine synthase [1], 29.9 µM. In assay [5], the Kd is 75.7 µM.

For the compound `O=C(Nc1cccc(C(=O)O)c1)Nc1cccc(-c2ccccc2)c1`, the values for the IC50 (in assay [3]; on S-sulfocysteine synthase [1]) were 4.9 µM and 6.6 µM, respectively. The values for the Kd (in assay [5]; at S-sulfocysteine synthase [2]) were 96.8 µM and 14.9 µM, respectively. Moreover, the Ki at S-sulfocysteine synthase [6] was 1.1 µM.

For the compound `COc1ccc(OC)c(NC(=O)Nc2ccccc2C(=O)O)c1`, the Kd in assay [5] worked out at 59.9 µM.

Take `O=C(Nc1ccc(Br)cc1)Nc1ccc(C(=O)O)c(O)c1`: the half-maximal inhibitory concentration (IC50) in assay [3] turned out to be 29.4 µM.

For the compound `O=C(O)c1cccc(NS(=O)(=O)c2cccc(-c3ccc(Cl)c(Cl)c3)c2)c1`, the Kd in assay [5] was 110 µM.

For the origin of these results see ChEMBL document CHEMBL5260815, “Profiling of in vitro activities of urea-based inhibitors against cysteine synthases from Mycobacterium tuberculosis” (Bioorg Med Chem Lett, 2017).
